The text below walks through data of patent publication US20240025884A1 (Dong-A ST Co., Ltd., priority 2022, published 2024).

The target of the assay is GCN2 (Homo sapiens (Human), UniProt Q9P2K8). Kind of assay: GCN2 Biochemical Assay (TR-FRET, GFP-eIF2S1 substrate phosphorylation). The following applies: read-out: IC50 (GCN2 Inhibitory Activity). In a few lines: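 TR-FRET readout (Ex 340, Em 490/520 nm) after 2–3 h with Tb-labelled phospho-eIF2S1 antibody in stop mix, following a 70 min room-temperature kinase step. Reaction: in-house GCN2, GFP-eIF2S1, ATP, tRNA in Tris pH 7.5 (2× stocks 1.6 nM, 50 nM, 0.2 mM); compounds tested at 10 concentrations, with a phospho-substrate artifact counter-plate.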
GCN2, sequence (Q9P2K8 whole entry): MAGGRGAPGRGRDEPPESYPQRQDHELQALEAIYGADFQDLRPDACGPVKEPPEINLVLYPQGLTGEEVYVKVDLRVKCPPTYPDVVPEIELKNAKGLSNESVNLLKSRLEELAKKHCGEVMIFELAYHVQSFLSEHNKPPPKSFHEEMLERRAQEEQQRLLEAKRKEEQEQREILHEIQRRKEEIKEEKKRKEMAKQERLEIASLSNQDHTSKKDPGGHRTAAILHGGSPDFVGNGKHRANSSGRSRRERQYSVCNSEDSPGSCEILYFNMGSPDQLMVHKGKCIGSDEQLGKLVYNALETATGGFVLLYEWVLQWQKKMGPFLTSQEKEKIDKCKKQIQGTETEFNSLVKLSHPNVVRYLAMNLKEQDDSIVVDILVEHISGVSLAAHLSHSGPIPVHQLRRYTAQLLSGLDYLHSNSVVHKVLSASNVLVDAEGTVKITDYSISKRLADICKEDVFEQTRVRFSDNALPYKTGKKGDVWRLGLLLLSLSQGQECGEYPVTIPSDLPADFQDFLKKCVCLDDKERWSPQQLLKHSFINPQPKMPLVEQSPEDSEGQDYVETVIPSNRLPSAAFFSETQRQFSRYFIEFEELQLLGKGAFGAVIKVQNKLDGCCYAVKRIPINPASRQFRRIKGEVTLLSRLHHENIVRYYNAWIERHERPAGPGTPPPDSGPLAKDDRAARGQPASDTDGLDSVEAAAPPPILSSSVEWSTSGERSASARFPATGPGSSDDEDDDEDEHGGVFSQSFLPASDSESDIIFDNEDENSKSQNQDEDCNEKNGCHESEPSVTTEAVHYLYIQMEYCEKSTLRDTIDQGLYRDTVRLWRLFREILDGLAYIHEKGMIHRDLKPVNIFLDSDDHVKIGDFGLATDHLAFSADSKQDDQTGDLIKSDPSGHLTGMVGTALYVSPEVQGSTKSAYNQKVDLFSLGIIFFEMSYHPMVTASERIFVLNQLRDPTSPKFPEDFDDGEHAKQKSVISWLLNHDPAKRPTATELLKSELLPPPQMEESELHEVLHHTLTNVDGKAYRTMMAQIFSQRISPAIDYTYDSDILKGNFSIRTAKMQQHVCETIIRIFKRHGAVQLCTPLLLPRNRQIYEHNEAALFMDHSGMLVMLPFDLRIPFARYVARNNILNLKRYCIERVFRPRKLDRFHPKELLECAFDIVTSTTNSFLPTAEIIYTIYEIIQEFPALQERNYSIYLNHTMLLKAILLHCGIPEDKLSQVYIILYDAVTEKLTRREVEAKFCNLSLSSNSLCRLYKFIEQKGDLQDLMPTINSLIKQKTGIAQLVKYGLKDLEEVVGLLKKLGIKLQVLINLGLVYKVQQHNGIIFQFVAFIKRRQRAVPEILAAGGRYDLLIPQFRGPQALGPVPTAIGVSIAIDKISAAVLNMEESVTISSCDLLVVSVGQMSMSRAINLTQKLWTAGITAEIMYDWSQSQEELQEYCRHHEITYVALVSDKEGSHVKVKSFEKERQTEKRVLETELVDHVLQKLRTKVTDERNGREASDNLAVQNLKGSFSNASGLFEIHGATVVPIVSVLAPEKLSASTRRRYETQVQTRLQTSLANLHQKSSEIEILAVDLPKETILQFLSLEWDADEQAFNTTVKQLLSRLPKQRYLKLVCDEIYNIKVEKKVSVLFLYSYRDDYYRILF
On the technique in general: Time-resolved FRET reads energy transfer from a long-lived donor to a nearby acceptor.
Take `Cc1cnc(Nc2cc(C)n(C)n2)nc1-c1c[nH]c2c(N3Cc4c(NC(=O)C5CCCCC5)cccc4C3=O)cccc12` [Example 295, N-(2-(3-(2-((1,5-dimethyl-1H-pyrazol-3-yl)amino)-5-methylpyrimidin-4-yl)-1H-indol-7-yl)-1-oxoisoindolin-4-yl)cyclohexanecarboxamide]: the IC50 fell in the range of 10 to 100 nM.
With `Cc1cnc(Nc2cc(C)n(C)n2)nc1-c1c[nH]c2c(NC(=O)CN3CC[C@H](C(=O)N4CCOCC4)C3)cccc12` [Example 63, (S)-N-(3-(2-((1,5-dimethyl-1H-pyrazol-3-yl)amino)-5-methylpyrimidin-4-yl)-1H-indol-7-yl)-2-(3-(morpholine-4-carbonyl)pyrrolidin-1-yl)acetamide] the figure was 100 to 1000 nM.
With `CCc1cnc(Nc2cc(C)n(C)n2)nc1-c1c[nH]c2c(NC(=O)CN3CC[C@H](Oc4ccnc(NC5CC5)n4)C3)cccc12` (stereo in doubt) [Example 11, (3-((2-(cyclopropylamino)pyrimidin-4-yl)oxy)pyrrolidin-1-yl)-N-(3-(2-((1,5-dimethyl-1H-pyrazol-3-yl)amino)-5-ethylpyrimidin-4-yl)-1H-indol-7-yl)acetamide] the figure was less than 10 nM.
With `Cc1cnc(Nc2cc(C)n(C)n2)nc1-c1c[nH]c2c(NC(=O)CN3C[C@@H](Oc4ccnc(NC5CC5)n4)C[C@H]3CN)cccc12` [Example 59, 2-((2S,4S)-2-(aminomethyl)-4-((2-(cyclopropylamino)pyrimidin-4-yl)oxy)pyrrolidin-1-yl)-N-(3-(2-((1,5-dimethyl-1H-pyrazol-3-yl)amino)-5-methylpyrimidin-4-yl)-1H-indol-7-yl)acetamide] the figure was less than 10 nM; with `Cc1cnc(Nc2cc(C)n(C)n2)nc1-c1c[nH]c2c(N3Cc4ccc(N)cc4C3=O)cccc12` [Example 269, 6-amino-2-(3-(2-((1,5-dimethyl-1H-pyrazol-3-yl)amino)-5-methylpyrimidin-4-yl)-1H-indol-7-yl)isoindolin-1-one], less than 10 nM; with `Cc1cnc(Nc2cc(C)n(C)n2)nc1-c1c[nH]c2c(NC(=O)C(C)N3CC[C@H](Oc4ccncc4)C3)cccc12` (stereo partly drawn) [Example 23, N-(3-(2-((1,5-dimethyl-1H-pyrazol-3-yl)amino)-5-methylpyrimidin-4-yl)-1H-indol-7-yl)-2-((S)-3-(pyridin-4-yloxy)pyrrolidin-1-yl)propenamide], 100 to 1000 nM.
Consider `Cc1cnc(Nc2cc(C)n(C)n2)nc1-c1c[nH]c2c(N3Cc4c(cccc4-c4cc(N)ncn4)C3=O)cccc12` [Example 456, 4-(6-aminopyrimidin-4-yl)-2-(3-(2-((1,5-dimethyl-1H-pyrazol-3-yl)amino)-5-methylpyrimidin-4-yl)-1H-indol-7-yl)isoindolin-1-one], for which the half-maximal inhibitory concentration (IC50) is less than 10 nM.
`Cc1cnc(Nc2cc3n(n2)CCC3)nc1-c1c[nH]c2c(NC(=O)CN3CC[C@H](Oc4ccncn4)C3)cccc12` [Example 15, (S)-N-(3-(2-((5,6-dihydro-4H-pyrrolo[1,2-b]pyrazol-2-yl)amino)-5-methylpyrimidin-4-yl)-1H-indol-7-yl)-2-(3-(pyrimidin-4-yloxy)pyrrolidin-1-yl)acetamide]: the IC50 was less than 10 nM.
The figure for `Cc1cnc(Nc2cc(C)n(C)n2)nc1-c1c[nH]c2c(N3Cc4c(NC(=O)c5ccnnc5)cccc4C3=O)cccc12` [Example 302, N-(2-(3-(2-((1,5-dimethyl-1H-pyrazol-3-yl)amino)-5-methylpyrimidin-4-yl)-1H-indol-7-yl)-1-oxoisoindolin-4-yl)pyridazine-4-carboxamide] is less than 10 nM; for `Cc1cnc(Nc2cc(C)n(C)n2)nc1-c1c[nH]c2c(NC(=O)CN3CC[C@H](Oc4ncc(F)c(N(C)c5ccccc5)n4)C3)cccc12` [Example 184, (S)-N-(3-(2-((1,5-dimethyl-1H-pyrazol-3-yl)amino)-5-methylpyrimidin-4-yl)-1H-indol-7-yl)-2-(3-((5-fluoro-4-(methyl(phenyl)amino)pyrimidin-2-yl)oxy)pyrrolidin-1-yl)acetamide] it is 10 to 100 nM.
With `Cc1cnc(Nc2cc(C)n(C)n2)nc1-c1c[nH]c2c(N3Cc4c(NC(=O)c5cnoc5C)cccc4C3=O)cccc12` [Example 321, N-(2-(3-(2-((1,5-dimethyl-1H-pyrazol-3-yl)amino)-5-methylpyrimidin-4-yl)-1H-indol-7-yl)-1-oxoisoindolin-4-yl)-5-methylisoxazole-4-carboxamide] the figure was less than 10 nM; with `Cc1cnc(Nc2cc(C)n(C)n2)nc1-c1c[nH]c2c(N3Cc4c(NC(=O)C5CCC(=O)N5)cccc4C3=O)cccc12` (stereo not shown) [Example 308, N-(2-(3-(2-((1,5-dimethyl-1H-pyrazol-3-yl)amino)-5-methylpyrimidin-4-yl)-1H-indol-7-yl)-1-oxoisoindolin-4-yl)-5-oxopyrrolidine-2-carboxamide], less than 10 nM.
With `Cc1cnc(Nc2cc(C)n(C)n2)nc1-c1c[nH]c2c(N3Cc4cccc(N(C)C)c4C3=O)cccc12` [Example 349, 2-(3-(2-((1,5-dimethyl-1H-pyrazol-3-yl)amino)-5-methylpyrimidin-4-yl)-1H-indol-7-yl)-7-(dimethylamino)isoindolin-1-one] the figure was 10 to 100 nM; with `Cc1cnc(Nc2cc(C)n(C)n2)nc1-c1c[nH]c2c(N3Cc4c(cccc4-c4ccc(C(=O)N5CCC(=O)CC5)cc4)C3=O)cccc12` [Example 412, 2-(3-(2-((1,5-dimethyl-1H-pyrazol-3-yl)amino)-5-methylpyrimidin-4-yl)-1H-indol-7-yl)-4-(4-(4-oxopiperidine-1-carbonyl)phenyl)isoindolin-1-one], less than 10 nM; with `COC(=O)c1sccc1O[C@H]1CCN(CC(=O)Nc2cccc3c(-c4nc(Nc5cc(C)n(C)n5)ncc4C)c[nH]c23)C1` [Example 107, methyl (S)-3-((1-(2-((3-(2-((1,5-dimethyl-1H-pyrazol-3-yl)amino)-5-methylpyrimidin-4-yl)-1H-indol-7-yl)amino)-2-oxoethyl)pyrrolidin-3-yl)oxy)thiophene-2-carboxylate], less than 10 nM.
With `Cc1cnc(Nc2cc(C)n(C)n2)nc1-c1c[nH]c2c(NC(=O)CN3CC[C@H](Oc4ccsn4)C3)cccc12` [Example 114, (S)-N-(3-(2-((1,5-dimethyl-1H-pyrazol-3-yl)amino)-5-methylpyrimidin-4-yl)-1H-indol-7-yl)-2-(3-(isothiazol-3-yloxy)pyrrolidin-1-yl)acetamide], the IC50 was 10 to 100 nM.
With `Cc1cc(-c2nccc3c2CN(c2cccc4c(-c5nc(Nc6cc(C)n(C)n6)ncc5C)c[nH]c24)C3=O)ccn1` [Example 502, 2-(3-(2-((1,5-dimethyl-1H-pyrazol-3-yl)amino)-5-methylpyrimidin-4-yl)-1H-indol-7-yl)-4-(2-methylpyridin-4-yl)-2,3-dihydro-1H-pyrrolo[3,4-c]pyridin-1-one] the figure was less than 10 nM; with `Cc1cnc(Nc2cc(C)n(C)n2)nc1-c1c[nH]c2c(N3Cc4c(cccc4C4=CCN(C(=O)OC(C)(C)C)CC4)C3=O)cccc12` [Example 397, tert-butyl 4-(2-(3-(2-((1,5-dimethyl-1H-pyrazol-3-yl)amino)-5-methylpyrimidin-4-yl)-1H-indol-7-yl)-1-oxoisoindolin-4-yl)-3,6-dihydropyridine-1(2H)-carboxylat], less than 10 nM.
For the compound `Cc1cnc(Nc2cc(C)n(C)n2)nc1-c1c[nH]c2c(NC(=O)C(C)(C)N3CC[C@H](Oc4ccncc4)C3)cccc12` [Example 25, (S)-N-(3-(2-((1,5-dimethyl-1H-pyrazol-3-yl)amino)-5-methylpyrimidin-4-yl)-1H-indol-7-yl)-2-methyl-2-(3-(pyridin-4-yloxy)pyrrolidin-1-yl)propanamide], the IC50 was greater than 1000 nM.
With `CNc1ccnc(O[C@H]2CCN(CC(=O)Nc3cccc4c(-c5nc(Nc6cc(C)n(C)n6)ncc5C)c[nH]c34)C2)n1` [Example 169, (S)-N-(3-(2-((1,5-dimethyl-1H-pyrazol-3-yl)amino)-5-methylpyrimidin-4-yl)-1H-indol-7-yl)-2-(3-((4-(methylamino)pyrimidin-2-yl)oxy)pyrrolidin-1-yl)acetamide] the figure was less than 10 nM; with `Cc1cnc(Nc2cc(C)n(C)n2)nc1-c1c[nH]c2c(N3Cc4c(NC(=O)C5CCCN(C)C5)cccc4C3=O)cccc12` (stereo not shown) [Example 307, N-(2-(3-(2-((1,5-dimethyl-1H-pyrazol-3-yl)amino)-5-methylpyrimidin-4-yl)-1H-indol-7-yl)-1-oxoisoindolin-4-yl)-1-methylpiperidine-3-carboxamide], less than 10 nM.
The figure for `Cc1cnc(Nc2cc(C)n(C)n2)nc1-c1c[nH]c2c(N3Cc4c(/C=C/c5cccc(F)c5)cccc4C3=O)cccc12` [Example 410, (E)-2-(3-(2-((1,5-dimethyl-1H-pyrazol-3-yl)amino)-5-methylpyrimidin-4-yl)-1H-indol-7-yl)-4-(3-fluorostyryl)isoindolin-1-one] is 100 to 1000 nM.
With `Cc1cnc(Nc2cc(C)n(C)n2)nc1-c1c[nH]c2c(N3Cc4c(-c5ccnc(F)c5)ccc(F)c4C3=O)cccc12` [Example 485, 2-(3-(2-((1,5-dimethyl-1H-pyrazol-3-yl)amino)-5-methylpyrimidin-4-yl)-1H-indol-7-yl)-7-fluoro-4-(2-fluoropyridin-4-yl)isoindolin-1-one] the figure was less than 10 nM.
For `Cc1cnc(Nc2cc(C)n(C)n2)nc1-c1c[nH]c2c(N3Cc4cccc(NCc5ccccc5)c4C3=O)cccc12` [Example 350, 7-(benzylamino)-2-(3-(2-((1,5-dimethyl-1H-pyrazol-3-yl)amino)-5-methylpyrimidin-4-yl)-1H-indol-7-yl)isoindolin-1-one], the half-inhibitory concentration (IC50) lay within 100 to 1000 nM.
The figure for `Cc1cnc(Nc2cc(C)n(C)n2)nc1-c1c[nH]c2c(N3Cc4c(NC(=O)[C@@H]5CCC(=O)N5)cccc4C3=O)cccc12` [Example 317, (S)-N-(2-(3-(2-((1,5-dimethyl-1H-pyrazol-3-yl)amino)-5-methylpyrimidin-4-yl)-1H-indol-7-yl)-1-oxoisoindolin-4-yl)-5-oxopyrrolidine-2-carboxamide] is less than 10 nM.

A word on the IC50: it is the concentration that gives 50% inhibition.
